Assay results published in patent US12257247B2 (Monte Rosa Therapeutics AG, priority 2023, dated 2025).
Read-outs that look alike come from different tables or passages of the source.

Molecular target: T1, VAV1 (Homo sapiens, UniProt P15498+Q96SW2)
T1 construct: A heterozygous VAV1 C-terminal HiBiT knock-in pool was generated at Monte Rosa Therapeutics from a clonal Jurkat cell; endogenous in cells; host or cells: Jurkat clone stably expressing LgBiT, homozygous GSPT1-G575N; heterozygous VAV1-HiBiT knock-in pool
Assay: VAV1 degradation activity, VAV1-HiBiT knock-in Jurkat luminescence assay (Example A, Table 1)
Assay type: cell-based
Details: VAV1-HiBiT knock-in Jurkat cells, luminescence read at 6 and 24 hours; for Dmax: Jurkat
Method in brief: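 Jurkat cells carrying VAV1-HiBiT knock-in, plated in RPMI/10% FBS with Endurazine live-cell substrate and pre-incubated ~16 h at 37° C. Compound dosed from 10 μM stock; luminescence read 6 and 24 h later. Response normalised to plate negative/positive controls, EC50 from 3-parameter logistic fit (hillslope 1).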

[1] = read-out: VAV1 DC50 (nM), class

## Cn1ccc(COc2ccc(-c3cccc([C@@H]4CCC(=O)NC4=O)c3Cl)cc2)n1 [Compound 209, (S)-3-(2-chloro-4′-((1-methyl-1H-pyrazol-3-yl)methoxy)-[1,1′-biphenyl]-3-yl)piperidine-2,6-dione]
read-out: VAV1 Dmax %
  Dmax: 93.3%
read-out: VAV1 Dmax %, class
  Dmax: > 90%
read-out: VAV1 DC50
  DC50: 7.35 nM
[1]
  DC50: ≤ 100 nM

## O=C1CC[C@H](c2cccc(-c3ccc(-n4ccccc4=O)cc3)c2Cl)C(=O)N1 [Compound 210, (R)-3-(2-chloro-4′-(2-oxopyridin-1(2H)-yl)-[1,1′-biphenyl]-3-yl)piperidine-2,6-dione]
read-out: VAV1 Dmax %
  Dmax: 96.9%
read-out: VAV1 Dmax %, class
  Dmax: > 90%
read-out: VAV1 DC50
  DC50: 40.9 nM
[1]
  DC50: ≤ 100 nM

## O=C1CC[C@@H](c2cccc(-c3ccc(-n4ccccc4=O)cc3)c2Cl)C(=O)N1 [Compound 211, (S)-3-(2-chloro-4′-(2-oxopyridin-1(2H)-yl)-[1,1′-biphenyl]-3-yl)piperidine-2,6-dione]
read-out: VAV1 Dmax %
  Dmax: 97.9%
read-out: VAV1 Dmax %, class
  Dmax: > 90%
read-out: VAV1 DC50
  DC50: 3.07 nM
[1]
  DC50: ≤ 100 nM

## O=C1CCC(c2cccc(-c3ccc(N4CCOC4=O)cc3)c2Cl)C(=O)N1 (centres unmarked) [Compound 212, 3-(2-chloro-4′-(2-oxooxazolidin-3-yl)-[1,1′-biphenyl]-3-yl)piperidine-2,6-dione]
read-out: VAV1 Dmax %
  Dmax: 47.3%
read-out: VAV1 Dmax %, class
  Dmax: < 60%
read-out: VAV1 DC50
  DC50: 7990 nM
[1]
  DC50: > 1000 nM

## Cn1ccc(COc2ccc(-c3cccc([C@H]4CCC(=O)NC4=O)c3Cl)cc2)n1 [Compound 213, (R)-3-(2-chloro-4′-((1-methyl-1H-pyrazol-3-yl)methoxy)-[1,1′-biphenyl]-3-yl)piperidine-2,6-dione]
read-out: VAV1 Dmax %
  Dmax: 92%
read-out: VAV1 Dmax %, class
  Dmax: > 90%
read-out: VAV1 DC50
  DC50: 101 nM
[1]
  DC50: 100 to 1000 nM

## Cc1cccc(=O)n1-c1ccc(-c2cccc(C3CCC(=O)NC3=O)c2Cl)cc1 (centres unmarked) [Compound 214, 3-(2-chloro-4′-(6-methyl-2-oxopyridin-1(2H)-yl)-[1,1′-biphenyl]-3-yl)piperidine-2,6-dione]
read-out: VAV1 Dmax %
  Dmax: 97.5%
read-out: VAV1 Dmax %, class
  Dmax: > 90%
read-out: VAV1 DC50
  DC50: 3.61 nM
[1]
  DC50: ≤ 100 nM

## O=C1CCC(c2cccc(-c3ccc(Nc4ccccn4)cc3)c2Cl)C(=O)N1 (centres unmarked) [Compound 215, 3-(2-chloro-4′-(pyridin-2-ylamino)-[1,1′-biphenyl]-3-yl)piperidine-2,6-dione]
read-out: VAV1 Dmax %
  Dmax: 96.8%
read-out: VAV1 Dmax %, class
  Dmax: > 90%
read-out: VAV1 DC50
  DC50: 14.1 nM
[1]
  DC50: ≤ 100 nM

## C[C@H]1COC(=O)N1c1ccc(-c2cccc(C3CCC(=O)NC3=O)c2Cl)cc1 (stereo partly drawn) [Compound 216, 3-(2-chloro-4′-((S)-4-methyl-2-oxooxazolidin-3-yl)-[1,1′-biphenyl]-3-yl)piperidine-2,6-dione]
read-out: VAV1 Dmax %
  Dmax: 86.6%
read-out: VAV1 Dmax %, class
  Dmax: 60 to 90%
read-out: VAV1 DC50
  DC50: 49 nM
[1]
  DC50: ≤ 100 nM

## C[C@@H]1COC(=O)N1c1ccc(-c2cccc(C3CCC(=O)NC3=O)c2Cl)cc1 (stereo partly drawn) [Compound 217, 3-(2-chloro-4′-((R)-4-methyl-2-oxooxazolidin-3-yl)-[1,1′-biphenyl]-3-yl)piperidine-2,6-dione]
read-out: VAV1 Dmax %
  Dmax: 84.6%
read-out: VAV1 Dmax %, class
  Dmax: 60 to 90%
read-out: VAV1 DC50
  DC50: 43 nM
[1]
  DC50: ≤ 100 nM

## O=C1CCC(c2cccc(-c3ccc(-n4cccc(F)c4=O)cc3)c2Cl)C(=O)N1 (centres unmarked) [Compound 218]
read-out: VAV1 Dmax %
  Dmax: 96%
read-out: VAV1 Dmax %, class
  Dmax: > 90%
read-out: VAV1 DC50
  DC50: 9.71 nM
[1]
  DC50: ≤ 100 nM

## O=C1CCC(c2cccc(-c3ccc(CN4CCOC4=O)cc3)c2Cl)C(=O)N1 (centres unmarked) [Compound 219]
read-out: VAV1 Dmax %
  Dmax: 81.2%
read-out: VAV1 Dmax %, class
  Dmax: 60 to 90%
read-out: VAV1 DC50
  DC50: 105 nM
[1]
  DC50: 100 to 1000 nM

## O=C1CCC(c2cccc(-c3ccc(N4CCCCS4(=O)=O)cc3)c2Cl)C(=O)N1 (centres unmarked) [Compound 220]
read-out: VAV1 Dmax %
  Dmax: 77.2%
read-out: VAV1 Dmax %, class
  Dmax: 60 to 90%
read-out: VAV1 DC50
  DC50: 104 nM
[1]
  DC50: 100 to 1000 nM

## O=C1CCC(c2cccc(-c3ccc(C(=O)N4CCC(F)(F)C4)cc3)c2Cl)C(=O)N1 (centres unmarked) [Compound 221, 3-(2-chloro-4′-(3,3-difluoropyrrolidine-1-carbonyl)-[1,1′-biphenyl]-3-yl)piperidine-2,6-dione]
read-out: VAV1 Dmax %
  Dmax: 77.4%
read-out: VAV1 Dmax %, class
  Dmax: 60 to 90%
read-out: VAV1 DC50
  DC50: 211 nM
[1]
  DC50: 100 to 1000 nM

## O=C1CCC(c2cccc(-c3ccc(C(=O)n4cccc4)cc3)c2Cl)C(=O)N1 (centres unmarked) [Compound 222, 3-(2-chloro-4′-(1H-pyrrole-1-carbonyl)-[1,1′-biphenyl]-3-yl)piperidine-2,6-dione]
read-out: VAV1 Dmax %
  Dmax: 91%
read-out: VAV1 Dmax %, class
  Dmax: > 90%
read-out: VAV1 DC50
  DC50: 127 nM
[1]
  DC50: 100 to 1000 nM

## O=C1CCC(c2cccc(-c3ccc(C(=O)N4CCCCC4)cc3)c2Cl)C(=O)N1 (centres unmarked) [Compound 223, 3-(2-chloro-4′-(piperidine-1-carbonyl)-[1,1′-biphenyl]-3-yl)piperidine-2,6-dione]
read-out: VAV1 Dmax %
  Dmax: 96.6%
read-out: VAV1 Dmax %, class
  Dmax: > 90%
read-out: VAV1 DC50
  DC50: 10.7 nM
[1]
  DC50: ≤ 100 nM

## O=C1CCC(c2cccc(-c3ccc(C(=O)Nc4ccno4)cc3)c2Cl)C(=O)N1 (centres unmarked) [Compound 224, 2′-chloro-3′-(2,6-dioxopiperidin-3-yl)-N-(isoxazol-5-yl)-[1,1′-biphenyl]-4-carboxamide]
read-out: VAV1 Dmax %
  Dmax: 51.5%
read-out: VAV1 Dmax %, class
  Dmax: < 60%
read-out: VAV1 DC50
  DC50: 7800 nM
[1]
  DC50: > 1000 nM

## Cn1cccc(-c2ccc(-c3cccc(C4CCC(=O)NC4=O)c3Cl)cc2)c1=O (centres unmarked) [Compound 225, 3-(2-chloro-4′-(1-methyl-2-oxo-1,2-dihydropyridin-3-yl)-[1,1′-biphenyl]-3-yl)piperidine-2,6-dione]
read-out: VAV1 Dmax %
  Dmax: 93.7%
read-out: VAV1 Dmax %, class
  Dmax: > 90%
read-out: VAV1 DC50
  DC50: 14.4 nM
[1]
  DC50: ≤ 100 nM

## O=C1CCC(c2cccc(-c3ccc(-n4cccc(C(F)(F)F)c4=O)cc3)c2Cl)C(=O)N1 (centres unmarked) [Compound 226, 3-(2-chloro-4′-(2-oxo-3-(trifluoromethyl)pyridin-1(2H)-yl)-[1,1′-biphenyl]-3-yl)piperidine-2,6-dione]
read-out: VAV1 Dmax %
  Dmax: 96.8%
read-out: VAV1 Dmax %, class
  Dmax: > 90%
read-out: VAV1 DC50
  DC50: 9.8 nM
[1]
  DC50: ≤ 100 nM

## O=C1CCC(c2cccc(-c3ccc(NC(=O)C4CCOC4)cc3)c2Cl)C(=O)N1 (centres unmarked) [Compound 227, N-[4-[2-chloro-3-(2,6-dioxo-3-piperidyl)phenyl]phenyl]tetrahydrofuran-3-carboxamide]
read-out: VAV1 Dmax %
  Dmax: 77.4%
read-out: VAV1 Dmax %, class
  Dmax: 60 to 90%
read-out: VAV1 DC50
  DC50: 81.8 nM
[1]
  DC50: ≤ 100 nM

## O=C1CCC(c2cccc(-c3ccc(NC(=O)c4ccno4)cc3)c2Cl)C(=O)N1 (centres unmarked) [Compound 228, N-(2′-chloro-3′-(2,6-dioxopiperidin-3-yl)-[1,1′-biphenyl]-4-yl)isoxazole-5-carboxamide]
read-out: VAV1 Dmax %
  Dmax: 73.5%
read-out: VAV1 Dmax %, class
  Dmax: 60 to 90%
read-out: VAV1 DC50
  DC50: 190 nM
[1]
  DC50: 100 to 1000 nM

## O=C1CCC(c2cccc(-c3ccc(NC(=O)c4ccon4)cc3)c2Cl)C(=O)N1 (centres unmarked) [Compound 229, N-(2′-chloro-3′-(2,6-dioxopiperidin-3-yl)-[1,1′-biphenyl]-4-yl)isoxazole-3-carboxamide]
read-out: VAV1 Dmax %
  Dmax: 82.7%
read-out: VAV1 Dmax %, class
  Dmax: 60 to 90%
read-out: VAV1 DC50
  DC50: 79.3 nM
[1]
  DC50: ≤ 100 nM

## O=C1CCC(c2cccc(-c3ccc(C(=O)Nc4ccon4)cc3)c2Cl)C(=O)N1 (centres unmarked) [Compound 230, 2′-chloro-3′-(2,6-dioxopiperidin-3-yl)-N-(isoxazol-3-yl)-[1,1′-biphenyl]-4-carboxamide]
read-out: VAV1 Dmax %
  Dmax: 58.5%
read-out: VAV1 Dmax %, class
  Dmax: < 60%
read-out: VAV1 DC50
  DC50: 2090 nM
[1]
  DC50: > 1000 nM

## CC(C)(c1ccc(-c2cccc(C3CCC(=O)NC3=O)c2Cl)cc1)n1ccccc1=O (centres unmarked) [Compound 231, 3-(2-chloro-4′-(2-(2-oxopyridin-1(2H)-yl)propan-2-yl)-[1,1′-biphenyl]-3-yl)piperidine-2,6-dione]
read-out: VAV1 Dmax %
  Dmax: 90.1%
read-out: VAV1 Dmax %, class
  Dmax: > 90%
read-out: VAV1 DC50
  DC50: 18.4 nM
[1]
  DC50: ≤ 100 nM

## O=C1CCC(c2cccc(-c3ccc(N4C(=O)CCCC45CC5)cc3)c2Cl)C(=O)N1 (centres unmarked) [Compound 232, 3-(2-chloro-4′-(5-oxo-4-azaspiro[2.5]octan-4-yl)-[1,1′-biphenyl]-3-yl)piperidine-2,6-dione]
read-out: VAV1 Dmax %
  Dmax: 98.5%
read-out: VAV1 Dmax %, class
  Dmax: > 90%
read-out: VAV1 DC50
  DC50: 2.8 nM
[1]
  DC50: ≤ 100 nM

## O=C1CCC(c2cccc(-c3ccc(CC4COC4)cc3)c2Cl)C(=O)N1 (centres unmarked) [Compound 233, 3-(2-chloro-4′-(oxetan-3-ylmethyl)-[1,1′-biphenyl]-3-yl)piperidine-2,6-dione]
read-out: VAV1 Dmax %
  Dmax: 92%
read-out: VAV1 Dmax %, class
  Dmax: > 90%
read-out: VAV1 DC50
  DC50: 16.1 nM
[1]
  DC50: ≤ 100 nM

## O=C1CCC(c2cccc(-c3ccc(-n4ccccc4=O)cc3)c2F)C(=O)N1 (centres unmarked) [Compound 234, 3-(2-fluoro-4′-(2-oxopyridin-1(2H)-yl)-[1,1′-biphenyl]-3-yl)piperidine-2,6-dione]
read-out: VAV1 Dmax %
  Dmax: 75.8%
read-out: VAV1 Dmax %, class
  Dmax: 60 to 90%
read-out: VAV1 DC50
  DC50: 127 nM
[1]
  DC50: 100 to 1000 nM

## O=C1CCC(c2cccc(-c3ccc(CC(=O)N4CCCC4)cc3)c2Cl)C(=O)N1 (centres unmarked) [Compound 235, 3-(2-chloro-4′-(2-oxo-2-(pyrrolidin-1-yl)ethyl)-[1,1′-biphenyl]-3-yl)piperidine-2,6-dione]
read-out: VAV1 Dmax %
  Dmax: 97.1%
read-out: VAV1 Dmax %, class
  Dmax: > 90%
read-out: VAV1 DC50
  DC50: 3.87 nM
[1]
  DC50: ≤ 100 nM

## O=C1CCC(c2cccc(-c3ccc(-n4ccc(C(F)(F)F)cc4=O)cc3)c2Cl)C(=O)N1 (centres unmarked) [Compound 236, 3-(2-chloro-4′-(2-oxo-4-(trifluoromethyl)pyridin-1(2H)-yl)-[1,1′-biphenyl]-3-yl)piperidine-2,6-dione]
read-out: VAV1 Dmax %
  Dmax: 93.5%
read-out: VAV1 Dmax %, class
  Dmax: > 90%
read-out: VAV1 DC50
  DC50: 31.3 nM
[1]
  DC50: ≤ 100 nM

## O=C1CCC(c2cccc(-c3ccc(-n4cc(C(F)(F)F)ccc4=O)cc3)c2Cl)C(=O)N1 (centres unmarked) [Compound 237, 3-(2-chloro-4′-(2-oxo-5-(trifluoromethyl)pyridin-1(2H)-yl)-[1,1′-biphenyl]-3-yl)piperidine-2,6-dione]
read-out: VAV1 Dmax %
  Dmax: 92.7%
read-out: VAV1 Dmax %, class
  Dmax: > 90%
read-out: VAV1 DC50
  DC50: 35.8 nM
[1]
  DC50: ≤ 100 nM
